Data on 23 molecules can be found in patent US11702418B2, “SOS1 inhibitors” (priority 2019, dated 2023).

Where a name gives a salt, the structure may show the parent alone. Read-outs that look alike come from different tables or passages of the source.

Assay [1] deals with recombinant human SOS1 polypeptide (amino acids 560-1049) (Homo sapiens (Human), UniProt Q07889). In words: biochemical. The note with it: read-out: Ki, Inhibition of Labeled Tracer Binding to SOS1. It is filed as binding.
For another assay, the system named is pERK in MKN1 cells. In words: cells. It counts as cell-based. The note with it: Homo sapiens.
[2] abbreviates: HTRF displacement, Cy5 labelled tracer, Morrison equation for competitive binding.
Setting [3] is: MKN-1, pERK inhibition, In-Cell Western, MKN1 or H358 cells (Table 24 does not say which), 0.5-1 hour incubation, read-out: IC50.

Sequence of recombinant human SOS1 polypeptide (amino acids 560-1049) (Q07889 560-1049): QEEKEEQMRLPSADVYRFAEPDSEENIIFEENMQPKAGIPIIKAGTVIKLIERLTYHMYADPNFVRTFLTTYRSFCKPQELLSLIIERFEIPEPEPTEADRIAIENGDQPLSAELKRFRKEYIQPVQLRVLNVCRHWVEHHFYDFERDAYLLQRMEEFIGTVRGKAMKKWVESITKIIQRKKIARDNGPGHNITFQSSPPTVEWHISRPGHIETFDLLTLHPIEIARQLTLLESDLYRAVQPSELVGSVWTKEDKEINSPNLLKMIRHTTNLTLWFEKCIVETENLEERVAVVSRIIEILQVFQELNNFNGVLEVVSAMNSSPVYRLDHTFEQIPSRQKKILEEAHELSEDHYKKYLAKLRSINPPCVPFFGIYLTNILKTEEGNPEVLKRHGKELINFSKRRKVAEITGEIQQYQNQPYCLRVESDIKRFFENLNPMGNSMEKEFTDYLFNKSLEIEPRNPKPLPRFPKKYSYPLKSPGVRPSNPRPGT
Method for pERK in MKN1 cells: The cells were incubated for approximately 0.5-1 hour with the compounds solubilized in DMSO at 37° C. Cells were immediately fixed by adding 50 μL of 4% formaldehyde to all wells in a fume hood and the plates were incubated for 20 minutes at room temperature. The formaldehyde was discarded from the plates and 150 μL of ice-cold methanol was added to permeabilize the cells for 10 minutes at −20° C. The methanol was discarded from each of the plates and any liquid remaining in the plate by tapping the plate against paper towels. […] The plates were incubated overnight at 4° C. on a shaker.
On Assay day 2, the primary antibody solution was removed. […] The secondary antibody solution as removed and each plate was washed with PBST 3× times. Any liquid remaining was discarded and the plate was imaged using the Licor Odyssey machine according to the manufacturer's instruction, using a set focus length at 3 mm and both 800 nm and 700 nm filters. The GAPDH normalized scan values for each well were divided by the average of vehicle wells to get the % of pERK inhibition. The IC50 values were then calculated with the Graph pad Prism software.

Turning to `Cc1c(C#N)cccc1[C@@H](C)Nc1nnc(C)c2ccc(N3CC4(COCCN4C)C3)cc12` [Example 10-79, (R)-2-methyl-3-(1-((4-methyl-7-(5-methyl-8-oxa-2,5-diazaspiro[3.5]nonan-2-yl)phthalazin-1-yl)amino)ethyl)benzonitrile Formate salt], the Ki in assay [1] turned out to be 4.15 nM. Further, half-maximal inhibition in the assay on pERK in MKN1 cells (MKN-1) (IC50) was put at 16 nM.

As to `Cc1c(C#N)cccc1[C@@H](C)Nc1nnc(CN(C)C)c2cnc(N3C[C@H]4C[C@@H]3CO4)cc12` [Example 14-4, 3-((R)-1-((7-((1R,4R)-2-oxa-5-azabicyclo[2.2.1]heptan-5-yl)-4-((dimethylamino)methyl)pyrido[3,4-d]pyridazin-1-yl)amino)ethyl)-2-methylbenzonitrile], the Ki in assay [1] (setting [2]) was 8.55 nM. In the assay with pERK in MKN1 cells (setting [3]), the IC50 turned out to be 89 nM.

Regarding `Cc1c([C@@H](C)Nc2nnc(C)c3ccc(N4CCN(C)CC4)cc23)cccc1C(F)(F)F` [Example 6-1, (R)-4-methyl-N-(1-(2-methyl-3-(trifluoromethyl)phenyl)ethyl)-7-(4-methylpiperazin-1-yl)phthalazin-1-amine], the Ki in assay [1] (setting [2]) came to 0.11 nM. Further, in the assay with pERK in MKN1 cells (setting [3]), the IC50 was found to be 79 nM.

Regarding `Cc1nnc(N[C@H](C)c2cccc(C(F)(F)F)c2F)c2cc(N3CCOCC3)ccc12` [Example 10-77, (R)-N-(1-(2-fluoro-3-(trifluoromethyl)phenyl)ethyl)-4-methyl-7-morpholinophthalazin-1-amine], the Ki in assay [1] (setting [2]) stood at 0.75 nM. Further, the IC50 in the assay on pERK in MKN1 cells (setting [3]) came to 102 nM.

Consider `Cc1c([C@@H](C)Nc2nnc(C)c3ccc(-n4cc5c(n4)CNC5)cc23)cccc1C(F)(F)F` [Example 10-16, (R)-7-(5,6-dihydropyrrolo[3,4-c]pyrazol-2(4H)-yl)-4-methyl-N-(1-(2-methyl-3-(trifluoromethyl)phenyl)ethyl)phthalazin-1-amine], for which, in assay [1] (setting [2]), the Ki is 7.75 nM. Besides, the IC50 in the assay with pERK in MKN1 cells (setting [3]) amounted to 325 nM.

For the molecule `Cc1c([C@@H](C)Nc2nnc(C)c3ccc(N4CCNC5(CC5)C4)cc23)cccc1C(F)(F)F` [Example 10-34, (R)-4-methyl-N-(1-(2-methyl-3-(trifluoromethyl)phenyl)ethyl)-7-(4,7-diazaspiro[2.5]octan-7-yl)phthalazin-1-amine], the Ki in assay [1] (setting [2]) was 0.56 nM. Also, the IC50 with pERK in MKN1 cells (setting [3]) came to 136 nM.

As for `Cc1c([C@@H](C)Nc2nnc(C)c3ccc(N4CCC5(CCNC5=O)CC4)cc23)cccc1C(F)(F)F` [Example 10-38, (R)-8-(1-methyl-4-((1-(2-methyl-3-(trifluoromethyl)phenyl)ethyl)amino)phthalazin-6-yl)-2,8-diazaspiro[4.5]decan-1-one], the inhibition constant (Ki) in assay [1] (setting [2]) was 0.71 nM. Moreover, the IC50 in the assay with pERK in MKN1 cells (setting [3]) is 29 nM.

As for `Cc1c([C@@H](C)Nc2nnc(C)c3cnc(N4CCS(=O)(=O)CC4)cc23)cccc1C(F)(F)F` [Example 12-13], the Ki in assay [1] (setting [2]) was found to be 1.57 nM. The half-inhibitory concentration (IC50) in the assay with pERK in MKN1 cells (setting [3]) came to 39 nM.

With `Cc1c(C#N)cccc1[C@@H](C)Nc1nnc(C)c2cnc(N3CC4(COCCN4C)C3)cc12` [Example 12-72], the inhibition constant Ki in assay [1] (setting [2]) was 4.39 nM. Further, the IC50 in the assay on pERK in MKN1 cells (setting [3]) turned out to be 19 nM.

For the molecule `Cc1c(C#N)cccc1[C@@H](C)Nc1nnc(C)c2cnc(N3C[C@H]4C[C@@H]3CO4)cc12` [Example 12-24], in assay [1] (setting [2]), the Ki was found to be 1.24 nM. Moreover, in the assay on pERK in MKN1 cells (setting [3]), the concentration for half-maximal inhibition (IC50) was 38 nM.

Consider `Cc1nnc(N[C@H](C)c2cccc(C(F)F)c2F)c2cc(N3CCN4CCOC[C@@H]4C3)ccc12` [Example 10-86, N-((R)-1-(3-(difluoromethyl)-2-fluorophenyl)ethyl)-7-((S)-hexahydropyrazino[2,1-c][1,4]oxazin-8(1H)-yl)-4-methylphthalazin-1-amine Formate salt], for which, in assay [1], the Ki amounted to 1.51 nM. For the same molecule, in the assay on pERK in MKN1 cells (MKN-1), it took 21 nM to reach half-maximal inhibition (IC50).

Consider `Cc1c([C@@H](C)Nc2nnc(C)c3cc(F)c(N4CCNCC4)cc23)cccc1C(F)(F)F` [Example 18-1, (R)-6-fluoro-4-methyl-N-(1-(2-methyl-3-(trifluoromethyl)phenyl)ethyl)-7-(piperazin-1-yl)phthalazin-1-amine], for which the Ki in assay [1] was determined as 0.98 nM. The molecule also had an IC50 in the assay with pERK in MKN1 cells (MKN-1, pERK inhibition, In-Cell Western, MKN1 or H358 cells (Table 24 does not say which), 0.5-1 hour incubation) of 128 nM.

With `Cc1c([C@@H](C)Nc2nnc(C)c3ccc(N4CCNCC(F)C4)cc23)cccc1C(F)(F)F` (stereo partly drawn) [Example 10-22, 7-(6-fluoro-1,4-diazepan-1-yl)-4-methyl-N-((R)-1-(2-methyl-3-(trifluoromethyl)phenyl)ethyl)phthalazin-1-amine], in assay [1] (setting [2]), the Ki came out at 0.45 nM. Besides, the IC50 with pERK in MKN1 cells (setting [3]) stood at 38 nM.

`Cc1nnc(N[C@H](C)c2cc(N)cc(C(F)(F)F)n2)c2cc(N3C[C@H]4C[C@@H]3CO4)ccc12` [Example 16-8, N-((R)-1-(4-amino-6-(trifluoromethyl)pyridin-2-yl)ethyl)-7-((1R, 4R)-2-oxa-5-azabicyclo[2.2.1]heptan-5-yl)-4-methylphthalazin-1-amine]: in assay [1] (setting [2]), the inhibitory constant (Ki) worked out at 21.2 nM. The IC50 in the assay with pERK in MKN1 cells (setting [3]) came to 93 nM.

For `Cc1c([C@@H](C)Nc2nncc3ccc(N4CCN(C)C(CF)C4)cc23)cccc1C(F)(F)F` (stereo partly drawn) [Example 1-43, 7-(3-(fluoromethyl)-4-methylpiperazin-1-yl)-N-((R)-1-(2-methyl-3-(trifluoromethyl)phenyl)ethyl)phthalazin-1-amine], the Ki in assay [1] (setting [2]) stood at 1.36 nM. Besides, the IC50 in the assay on pERK in MKN1 cells (setting [3]) turned out to be 216 nM.

`Cc1nnc(N[C@H](C)c2cc(N)cc(C(F)(F)F)c2)c2cc(O[C@H]3CCOC3)ccc12` [Example 15-1, N—((R)-1-(3-amino-5-(trifluoromethyl)phenyl)ethyl)-4-methyl-7-(((S)-tetrahydrofuran-3-yl)oxy)phthalazin-1-amine]: the Ki in assay [1] (setting [2]) is 3.37 nM. The IC50 in the assay on pERK in MKN1 cells (setting [3]) worked out at 28 nM.

Consider `Cc1nnc(N[C@H](C)c2ccc(F)cc2F)c2cc(N3CC(C)(N(C)C)C3)ncc12` [Example 12-49], for which the Ki in assay [1] (setting [2]) came out at 39.7 nM. Moreover, in the assay with pERK in MKN1 cells (setting [3]), the IC50 came to 161 nM.

As for `Cc1c(C#N)cc(F)cc1[C@@H](C)Nc1nnc(C)c2cnc(N3CCC(C)(N(C)C)CC3)cc12` [Example 12-104], the Ki in assay [1] (setting [2]) was 6.1 nM. Further, the IC50 in the assay with pERK in MKN1 cells (setting [3]) was 92 nM.

Take `Cc1c([C@@H](C)Nc2nnc(C)c3ccc(C4CCNC(=O)C4)cc23)cccc1C(F)(F)F` (stereo partly drawn) [Example 10-3, 4-(1-methyl-4-(((R)-1-(2-methyl-3-(trifluoromethyl)phenyl)ethyl)amino)phthalazin-6-yl)piperidin-2-one]: the Ki in assay [1] (setting [2]) was found to be 0.71 nM. Further, the IC50 in the assay with pERK in MKN1 cells (setting [3]) was 85 nM.

In the case of `CNCc1ccccc1-c1ccc([C@@H](C)Nc2nnc(C)c3ccc(C)cc23)s1` [Example 8-1, (R)-4,7-di methyl-N-(1-(5-(2-((methylamino)methyl)phenyl)thiophen-2-yl)ethyl)phthalazin-1-amine], the inhibition constant (Ki) in assay [1] (setting [2]) stood at 1.38 nM. Further, the IC50 in the assay on pERK in MKN1 cells (setting [3]) came to 164 nM.

On to `Cc1cccc([C@@H](C)Nc2nnc(C)c3cnc(N4CC(C)(O)C4)cc23)c1F` [Example 12-132], for which, in assay [1] (setting [2]), the Ki was 11 nM. The IC50 in the assay on pERK in MKN1 cells (setting [3]) was 76 nM.

As for `Cc1c([C@@H](C)Nc2nnc(C)c3ccc(N4CC(O)C4)cc23)cccc1C(F)(F)F` [Example 10-48, (R)-1-(1-methyl-4-((1-(2-methyl-3-(trifluoromethyl)phenyl)ethyl)amino)phthalazin-6-yl)azetidin-3-ol], the Ki in assay [1] (setting [2]) was found to be 1.35 nM. In addition, the IC50 in the assay with pERK in MKN1 cells (setting [3]) came to 75 nM.

Turning to `Cc1nnc(N[C@H](C)c2cccc(F)c2Cl)c2cc(N3CC(C)(N(C)C)C3)ncc12` [Example 12-85], the Ki in assay [1] (setting [2]) was 27.6 nM. In the assay with pERK in MKN1 cells (setting [3]), the IC50 came to 602 nM.

The Ki is the dissociation constant of the complex between target and ligand, obtained from inhibition or displacement. As a reminder, the IC50 is the concentration needed to halve the response being measured.
